Converted amounts (≈) assume the structure as drawn.
Assays:
MRSA (ATCC 33591) [1] = assay: MIC, CLSI broth microdilution; type: cell-based, S. aureus; settings: three individual replicates
Procedure: The medium employed for the assay was Mueller Hinton II Broth (MHB II; Becton-Dickinson, Sparks, MD, USA). Agar plates used for the organisms were trypticase soy agar plus 5% sheep blood (BD; Sparks, MD, USA). MIC assay plates were prepared using the CLSI broth microdilution procedure. Automated liquid handlers (Multidrop 384, Biomek 2000 and Biomek FX) were used to conduct serial dilutions and liquid transfers. A standardized inoculum of each organism was prepared per CLSI methods. Suspensions were prepared to equal a 0.5 McFarland standard, followed by a 1:20 dilution in test media. The inocula were dispensed into sterile reservoirs divided by length (Beckman Colter) and the Biomek 2000 was used to inoculate the plates. Daughter plates were placed on the Biomek 2000 work surface in reverse orientation so that inoculation took place from low to high drug concentration. The Biomek 2000 delivered 10 μL of the diluted suspension into each well. These inoculations yielded a final cell concentration in the daughter plates of ~5 × 10^5 colony-forming units/mL in each well. The wells of the daughter plates ultimately contained 185 μL of broth, 5 μL of drug solution, and 10 μL of bacterial inoculum. Plates were covered with a sterile lid on the top plate, placed in plastic bags, and incubated at 35 °C for ~18 h. The microplates were viewed from the bottom using a plate viewer and the MIC was read. The MIC was recorded as the lowest concentration of drug that inhibited visible growth of the organism. Uninoculated solubility control plates were also observed for evidence of drug precipitation.

AcpS = AcpS (Escherichia coli, UniProt P24224); assay: AcpS enzyme activity inhibition (IC50) by DNM compounds, [3H]acetyl-CoA / apo-ACP assay; type: biochemical; settings: three individual replicates
AcpS, sequence (P24224 2-126): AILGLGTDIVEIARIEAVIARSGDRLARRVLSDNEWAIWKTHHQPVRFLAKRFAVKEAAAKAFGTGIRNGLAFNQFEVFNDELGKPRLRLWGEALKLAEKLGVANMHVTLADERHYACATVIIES
Excerpt: The acpP gene encoding ACP was amplified from E. coli genomic DNA and subcloned into the pGEX4T-1 vector. This construct drives the expression of glutathione S-transferase (GST) fused to the ACP open reading frame through a linker containing a consensus sequence for thrombin cleavage. The identity and veracity of acpP was verified by DNA sequencing. BL21 E. coli cells expressing GST-ACP were suspended in ice-cold phosphate buffer saline (PBS) and lysed by sonication. The lysate was made 1% Triton X-100 and rested on ice for 30 min with occasional mixing. A clear supernatant was isolated by centrifugation at 46,000 × g for 30 min, brought to 10 mM MgCl2 and 2 mM MnCl2 and incubated at room temperature for 1 h with occasional mixing. The supplementation of the lysate to 10 mM MgCl2 and 2 mM MnCl2 favors the activity of endogenous ACP phosphodiesterase (acpH) enriching the apo- fraction of GST-ACP. GST-ACP was affinity purified upon binding to glutathione-sepharose. The ACP moiety was eluted from the affinity resin by in-column thrombin digestion. Apo-ACP was separated from holo-ACP and acylated forms of ACP by ion-exchange chromatography on a Mono-Q 5/50 GL at pH 6.1 operated from an AKTA Pure 25 platform. The purity of the apo-ACP preparation was assessed by 20% PAGE on native gels containing 0.5 M urea.
The acpS gene was amplified from S. aureus and E. coli genomic DNA and inserted into a pET23b vector using standard recombinant DNA methodology such that the protein product would result in addition of a C-terminal 6x-His tag in frame with the AcpS open reading frames. The DNA sequences inserted in the vector were sequenced and found to be identical to the known E. coli and S. aureus acpS open reading frames. Recombinant His-Tagged AcpS expression was induced by IPTG addition and overnight culture. Cell lysate was obtained by sequential aspiration through 16, 18 and 21 G needles in a buffer of 50 mM Tris-HCl (pH 8.5), 10 mM MgCl2, 2 mM DTT, 5% glycerol, and further adjusted to pH 8.1 with MES. […] In a typical AcpS enzyme activity assay, 57 µM [^3H]acetyl-CoA, 2 µg apo-ACP, 10 mM MgCl2, 5 mM DTT, 50 mM Na phosphate (pH 7.0), and AcpS in a final volume of 10 µL were incubated at room temperature in a 1.5 mL microcentrifuge tube. At 5, 10, 15, and 20 min 2 µL of reaction were added to 750 µl 10% TCA on ice. Bovine serum albumin (BSA; 20 µl of a 25 mg/mL solution) was then added to facilitate precipitation of radiolabeled protein. The samples were centrifuged at 12,000 × g for 5 min. Supernatants were removed, and the pellets were rinsed twice with 750 µl of 10% trichloroacetic acid. Pellets were resuspended in 50 µl of formic acid and transferred to scintillation vials. 2 mL of scintillation fluid was added, and the amount of [^3H]-labeled holo-ACP formed was quantified by liquid scintillation counting. The enzymatic reaction proceeded in a linear manner depending on time (10–40 min) and enzyme concentration (1–5 nM). Routinely, each data point was determined at least by triplicate.

MRSA (ATCC 33591) [2] = assay: Rabbit ischemic ear wound model of infection by MRSA, topical treatment; type: in vivo, New Zealand White rabbits; settings: for reduction in bacterial survival as compared to vehicle control: quantitative microbiology at day 14, topical; for wound closure: topical for 14 days, versus vehicle control
Procedure: New Zealand White rabbits from Charles River were employed for this study. Both male and female rabbits were used; sample size prevented disaggregation of data by sex. Investigators were blinded to group allocation, data collection, and data analysis. Food and water were given ad libidum and animals were acclimatized for 7 days with photoperiods of alternating 12 h light and dark at 21 °C in relative humidity of 40–50%. The formulation for delivery of DNM compounds was Glaxal base (WellSpring Pharmaceutical Canada Corp., Oakville, Canada). Formulation was performed by dissolving compound in Glaxal base to give final concentrations of 1% or 2% DNM compound (w/v). The analgesic (Buprenex 0.02 mg/kg sc) and anesthesia (isoflurane (0.5–5% with oxygen carrier 0.5–2 L/min) were used as required during procedures. An ischemia wound healing model was conducted surgically. Each wound was inoculated with 50 μl of 2 × 10^7 CFU/mL MRSA (ATCC #33591) and dressed. After 1 day, wounds were treated with either 50 μl control cream containing vehicle or 50 μl cream containing compound daily. Wounds were assessed and observations recorded using the Draize scoring system. Digital photographs of each wound were obtained and documented.

SMILES | MIC (MRSA (ATCC 33591) [1]) [mg/L] | IC50 (AcpS) [µM] | reduction in bacterial survival as compared to vehicle control (MRSA (ATCC 33591) [2]) [%] | wound closure (MRSA (ATCC 33591) [2])
Clc1ccc(-c2cc(-c3nnn[nH]3)c(-c3ccc(Cl)cc3)s2)cc1 [DNM0213] | 2 (≈ 5.36 µM) |  |  | 
Cc1ccc(-c2cc(-c3nnn[nH]3)cc(-c3ccc(C)c4ccccc34)c2)c2ccccc12 [DNM0461] | 0.5 (≈ 1.17 µM) |  |  | 
c1ccc(-c2ccccc2-c2cc(-c3nnn[nH]3)cc(-c3ccccc3-c3ccccc3)c2)cc1 [DNM0464] | 0.5 (≈ 1.11 µM) | 9 |  | 
Clc1ccc(-c2sc(-c3ccccc3-c3ccccc3)cc2-c2nnn[nH]2)cc1 [DNM0466] | 1 (≈ 2.41 µM) | 9 |  | 
Cc1ccc(-c2sc(-c3ccccc3-c3ccccc3)cc2-c2nnn[nH]2)c2ccccc12 [DNM0472] | 2 (≈ 4.5 µM) | 10 |  | 
Cc1ccc(-c2sc(-c3ccc(Cl)cc3)cc2-c2nnn[nH]2)c2ccccc12 [DNM0473] | 2 (≈ 4.96 µM) | 10 |  | 
Cc1ccc(-c2cc(-c3nnn[nH]3)c(-c3ccccc3-c3ccccc3)s2)c2ccccc12 [DNM0478] | 1 (≈ 2.25 µM) | 8 |  | 
Clc1ccc(-c2cc(-c3nnn[nH]3)cc(-c3ccccc3-c3ccccc3)c2)cc1 [DNM0479] | 1 (≈ 2.45 µM) | 9 |  | 
Cc1ccc(-c2cc(-c3ccc(Cl)cc3)cc(-c3nnn[nH]3)c2)c2ccccc12 [DNM0480] | 2 (≈ 5.04 µM) | 8 |  | 
Clc1ccc(-c2cc(-c3nnn[nH]3)sc2-c2ccc(Cl)cc2)cc1 [DNM0487] | 2 (≈ 5.36 µM) | 1 | > 99 | significantly improved wound closure
Cc1cc(Cl)ccc1-c1cc(-c2nnn[nH]2)sc1-c1ccc(Cl)cc1C [DNM0488] | 2 (≈ 4.98 µM) | 9 |  | 
c1ccc(-c2ccccc2-c2cc(-c3nnn[nH]3)sc2-c2ccccc2-c2ccccc2)cc1 [DNM0489] | 2 (≈ 4.38 µM) | 10 |  | 
Clc1cccc(-c2ccccc2-c2cc(-c3nnn[nH]3)cc(-c3ccccc3-c3cccc(Cl)c3)c2)c1 [DNM0493] | 2 (≈ 3.85 µM) | 14 |  | 
Cc1ccc(-c2ccccc2-c2cc(-c3nnn[nH]3)c(-c3ccccc3-c3ccc(C)c(C)c3)s2)cc1C [DNM0495] | 2 (≈ 3.9 µM) | 10 |  | 
c1ccc2c(c1)oc1c(-c3cc(-c4nnn[nH]4)sc3-c3cccc4c3oc3ccccc34)cccc12 [DNM0542] | 1 (≈ 2.06 µM) | 12 |  | 
CC(C)(C)c1ccc(-c2cc(-c3nnn[nH]3)sc2-c2ccc(C(C)(C)C)cc2)cc1 [DNM0546] | 2 (≈ 4.8 µM) | 16 |  | 
CC(C)c1cc(Cl)ccc1-c1cc(-c2nnn[nH]2)sc1-c1ccc(Cl)cc1C(C)C [DNM0548] | 2 (≈ 4.37 µM) | 8 |  | 
c1ccc(-c2cc(-c3nnn[nH]3)sc2-c2ccccc2-c2ccsc2)c(-c2ccsc2)c1 [DNM0559] | 1 (≈ 2.13 µM) | 9 |  | 
CC(C)c1cc(Cl)ccc1-c1cc(C(=O)O)sc1-c1ccc(Cl)cc1C(C)C [DNM0566] | 1 (≈ 2.31 µM) | 13 |  | 
Clc1ccc(Cc2sc(-c3nnn[nH]3)cc2-c2cccc(CC3CCCC3)c2)cc1 [DNM0610] | 1 (≈ 2.3 µM) | 9 |  | 
Cc1cc(Cl)ccc1-c1sc(-c2nnn[nH]2)c(C)c1-c1ccc(Cl)cc1C [DNM0614] | 1 (≈ 2.41 µM) | 13 | > 99 | significantly improved wound closure
CCCCc1cccc(-c2cc(-c3nnn[nH]3)sc2Cc2ccccc2)c1 [DNM0626] | 0.5 (≈ 1.34 µM) | 9 |  | 
CCCCc1cccc(-c2sc(-c3nnn[nH]3)c(C)c2-c2cccc(CCCC)c2)c1 [DNM0627] | 0.25 (≈ 0.581 µM) | 10 |  | 
Cc1ccc(-c2cc(-c3nnn[nH]3)sc2[C@@H]2CCCc3ccccc32)c2ccccc12 [DNM0636] | 2 (≈ 4.73 µM) | 13 |  | 

— paper PMC11436758, “Computer-aided drug design to generate a unique antibiotic family” (Nature Communications, 2024)
